Assay results as given in patent publication US5004780A, “Cyclic monoperoxyketal” (priority 1988, dated 1991).

Legend:
Format in all cases: physicochemical
[1] = Thermal decomposition of peroxyketal in cumene at 100° C.; details: 0.05 mol/l; for Half-life period: 50000 µM
Description: (§1) A 0.05 mol/l cumene solution of each of the cyclic monoperoxyketals of the present invention produced in Examples 1-6 and the cyclic bisperoxyketals produced in the same manner as described in Examples 1-6 was prepared. A given amount of each sample solution was sampled into a glass ampule, and the sample solution was deaerated by a freezing method, and then the ampule was sealed under vacuum. Then, the ampules were put in a thermostat kept at 100° C., and taken out from the thermostate every predetermined times, and the concentration of peroxyketal was measured by a gas chromatography or liquid chromatography. The decomposition rate constant and half-life period of a sample peroxyketal were calculated from the disappearing rate of the peroxyketal. The obtained results are shown in the following Table 1 as Examples 6-12 and Comparative examples 1-6.

[2] = Thermal decomposition product of peroxyketal in cumene (gas chromatography)
Description: Each of the thermal decomposition reaction solutions of Example 7 and Comparative example 1 was analyzed by means of a gas chromatography to measure the thermal decomposition products. The number of mols of the decomposition products per 1 mol of each of the decomposed peroxyketals was calculated. The obtained results are shown in the following Table 3 as Example 16 and Comparative example 7.

[3] = Amounts of ketone and alcohol formed by the thermal decomposition of peroxyketal in cumene; details: 100° C.
Description: The amount of ketone and that of alcohol contained in each of the thermal decomposition solutions obtained in Examples 6-12 and Comparative examples 1-6 were measured by means of a gas chromatography. The numbers of mols of ketone and alcohol per 1 mol of each of decomposed cyclic monoperoxyketal or cyclic bisperoxyketal were measured. The obtained results are shown in the following Table 4 as Examples 17-22 and Comparative examples 8-13.

[4] = Solubility of peroxyketal in unsaturated polyester resin; design: key: .circle.: Complete dissolving; Δ: Fairly long time was required in dissolving; X: Incomplete dissolving (white turbid)
[5] = Thermal decomposition of 1-methoxy-1-(1,1-dimethylethylperoxy)cyclohexane at 100° C. in n-hexane, n-dodecane or n-hexadecane; details: for Half-life period: 50000 µM
Description: as §1
Thermal decomposition of 1-methoxy-1-(1,1-dimethylethylperoxy)cyclohexane at 100° C. was carried out in the same manner as described in Example 7, except that n-hexane, n-dodecane or n-hexadecane was used as a solvent in place of cumene, and the thermal decomposition rate constant and half-life period of the cyclic monoperoxyketal in these solvents were measured.

[6] = n-hexadecane, viscosity 0.900 cp

| Compound | Decomposition rate constant [1] | Half-life period [1] [h] | Thermal decomposition product: 1,1-dimethylperoxyhexanoate ([2]; 100° C., 1,1-dimethylperoxyhexanoate) | Thermal decomposition product: biscumyl ([2]; 100° C.) | Thermal decomposition product: t-butanol ([2]; 100° C.) | Ratio of ketone to alcohol [3] | Thermal decomposition product: Alcohol [3] | Thermal decomposition product: Ketone [3] | Solubility [4] | Decomposition rate constant ([5]; n-dodecane, viscosity 0.520 cp) | Half-life period ([5]; n-dodecane, viscosity 0.520 cp) [h] | Decomposition rate constant [5, 6] | Half-life period [5, 6] [h] | Decomposition rate constant ([5]; n-hexane, viscosity 0.168 cp) | Half-life period ([5]; n-hexane, viscosity 0.168 cp) [h] | Thermal decomposition product: acetone ([2]; 100° C., acetone) | Thermal decomposition product: methyl hexanoate ([2]; 100° C., methyl hexanoate) | Thermal decomposition product: Ketone (Acetophenone is formed) [3] |
| --- | --- | --- | --- | --- | --- | --- | --- | --- | --- | --- | --- | --- | --- | --- | --- | --- | --- | --- |
| CC(C)(C)OOC1(OOC(C)(C)C)CCCCC1 [Comparative example 1, 1,1-bis(1,1-dimethylethylperoxy)cyclohexane, reference compound] | 5.06 ×10^5 (1/sec) | 3.81 | 0.35 Number of mols per 1 mol of de | 0.69 Number of mols per 1 mol of de | 1.06 Number of mols per 1 mol of de | 0.01 | 1.37 mols per 1 mol of decomposed p | 0.02 mols per 1 mol of decomposed p | .circle. |  |  |  |  |  |  |  |  |  |
| COC1(OOC(C)(C)C)CCCCC1 [Example 7, 1-methoxy-1-(1,1-dimethylethylperoxy)cyclohexane] | 6.79 ×10^5 (1/sec) | 2.84 |  | 0.50 Number of mols per 1 mol of de | 0.47 Number of mols per 1 mol of de | 0.21 | 0.47 mols per 1 mol of decomposed p | 0.10 mols per 1 mol of decomposed p | .circle. | 4.71 ×10^5 (1/sec) | 4.09 | 4.23 ×10^5 (1/sec) | 4.55 | 5.13 ×10^5 (1/sec) | 3.75 | 0.10 Number of mols per 1 mol of de | 0.59 Number of mols per 1 mol of de |  |
| CCC(C)(C)OOC1(OC)CCCCC1 [Example 8, 1-methoxy-1-(1,1-dimethylpropylperoxy)cyclohexane] | 10.58 ×10^5 (1/sec) | 1.82 |  |  |  | 5.71 | 0.14 mols per 1 mol of decomposed p | 0.80 mols per 1 mol of decomposed p | .circle. |  |  |  |  |  |  |  |  |  |
| CCCC(C)(C)OOC1(OC)CCCCC1 [Example 9, 1-methoxy-1-(1,1-dimethylbutylperoxy)cyclohexane] | 11.20 ×10^5 (1/sec) | 1.72 |  |  |  | 2.26 | 0.31 mols per 1 mol of decomposed p | 0.70 mols per 1 mol of decomposed p | .circle. |  |  |  |  |  |  |  |  |  |
| COC1(OOC(C)(C)CC(C)(C)C)CCCCC1 [Example 10, 1-methoxy-1-(1,1,3,3-tetramethylbutylperoxy)cyclohexane] | 28.40 ×10^5 (1/sec) | 0.68 |  |  |  | 79.0 | 0.01 mols per 1 mol of decomposed p | 0.79 mols per 1 mol of decomposed p | .circle. |  |  |  |  |  |  |  |  |  |
| COC1(OOC(C)(C)c2ccccc2)CCCCC1 [Example 11, 1-methoxy-1-(1-methyl-1-phenylethylperoxy)cyclohexane] | 11.32 ×10^5 (1/sec) | 1.70 |  |  |  | 0.42 | 0.60 mols per 1 mol of decomposed p |  | .circle. |  |  |  |  |  |  |  |  | 0.25 mols per 1 mol of decomposed p |
| CCCC(C)(C)OOC1(OC)CC(C)CC(C)(C)C1 (centres unmarked) [Example 12, 1-methoxy-1-(1,1-dimethylbutylperoxy)-3,3,5-trimethylcyclohexane] | 11.25 ×10^5 (1/sec) | 1.71 |  |  |  | 2.27 | 0.30 mols per 1 mol of decomposed p | 0.68 mols per 1 mol of decomposed p | .circle. |  |  |  |  |  |  |  |  |  |
| CCC(C)(C)OOC1(OOC(C)(C)CC)CCCCC1 [compound 2, 1,1-bis(1,1-dimethylpropylperoxy)cyclohexane, reference compound] | 7.32 ×10^5 (1/sec) | 2.63 |  |  |  | 2.81 | 0.26 mols per 1 mol of decomposed p | 0.73 mols per 1 mol of decomposed p | Δ |  |  |  |  |  |  |  |  |  |
| CCCC(C)(C)OOC1(OOC(C)(C)CCC)CCCCC1 [compound 3, 1,1-bis(1,1-dimethylbutylperoxy)cyclohexane, reference compound] | 7.48 ×10^5 (1/sec) | 2.57 |  |  |  | 1.28 | 0.65 mols per 1 mol of decomposed p | 0.83 mols per 1 mol of decomposed p | Δ |  |  |  |  |  |  |  |  |  |
| CC(C)(C)CC(C)(C)OOC1(OOC(C)(C)CC(C)(C)C)CCCCC1 [compound 4, 1,1-bis(1,1,3,3-tetramethylbutylperoxy)cyclohexane, reference compound] | 19.83 ×10^5 (1/sec) | 0.97 |  |  |  | 1.21 | 0.24 mols per 1 mol of decomposed p | 0.29 mols per 1 mol of decomposed p | X |  |  |  |  |  |  |  |  |  |
| CC(C)(OOC1(OOC(C)(C)c2ccccc2)CCCCC1)c1ccccc1 [compound 5, 1,1-bis(1-methyl-1-phenylethylperoxy)cyclohexane, reference compound] | 8.24 ×10^5 (1/sec) | 2.34 |  |  |  | 0.41 | 1.00 mols per 1 mol of decomposed p |  | .circle. |  |  |  |  |  |  |  |  | 0.41 mols per 1 mol of decomposed p |
| CCCC(C)(C)OOC1(OOC(C)(C)CCC)CC(C)CC(C)(C)C1 (centres unmarked) [compound 6, 1,1-bis(1,1-dimethylbutylperoxy)-3,3,5-trimethylcyclohexane, reference compound] | 7.50 ×10^5 (1/sec) | 2.57 |  |  |  | 1.25 | 0.64 mols per 1 mol of decomposed p | 0.80 mols per 1 mol of decomposed p | Δ |  |  |  |  |  |  |  |  |  |
| CC(C)(C)OOC(=O)c1ccccc1 [compound 28, 1,1-dimethylethyl peroxybenzoate] |  |  |  |  |  |  |  |  | .circle. |  |  |  |  |  |  |  |  |  |
